According to patent US6472396B1, “Barbituric acid derivatives, processes for their production and pharmaceutical agents containing these compounds” (Roche Diagnostics GmbH, priority 1995, dated 2002):
pIC50: −log10 of the molar value.

What follows are molecules tested against T1, MMP-8 (Homo sapiens, UniProt P22894) (assay: Inhibition of MMPs (HNC catalytic domain), fluorogenic heptapeptide substrate DNP-Pro-Leu-Gly-Leu-Trp-Ala-D-Arg-NH2). Settings: not given.
T1 construct: catalytic domain (Met80-Gly242) of human neutrophil collagenase; made in house
T1 sequence (P22894 100-262 limits assumed): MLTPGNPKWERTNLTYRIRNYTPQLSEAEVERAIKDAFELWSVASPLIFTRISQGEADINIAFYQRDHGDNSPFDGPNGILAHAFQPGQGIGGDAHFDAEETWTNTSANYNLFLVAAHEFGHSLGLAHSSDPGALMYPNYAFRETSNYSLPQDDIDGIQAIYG
Format: biochemical
Protocol: In order to determine the inhibition of MMPs, for example HNC, the catalytic domain (isolation and purification see for example Schnierer, S., Kleine, T., Gote, T., Hillemann, A., Knäuper, V., Tschesche, H., Biochem. Biophys. Res. Commun. (1993) 191, 319-326) is incubated with inhibitors having various concentrations. Subsequently, the initial reaction rate in the conversion of a standard substrate is measured in a manner analogous to Grams F. et al., FEBS 335 (1993) 76-80).
The results are evaluated by plotting the reciprocal reaction rate against the concentration of the inhibitor. The inhibition constant (Ki) is obtained as the negative section of the abscissis by the graphical method according to Dixon, M., Biochem. J. (1953) 55, 170-202.
The synthetic collagenase substrate is a heptapeptide which is coupled, at the […], with DNP (dinitrophenol). Said DNP residue quenches by steric hindrance the fluorescence of the adjacent tryptophane of the heptapeptide. After cleavage of a tripeptide which includes the DNP group, the tryptophane fluorescence increases. The proteolytic cleavage of the substrate therefore can be measured by the fluorescence value.
The assay was performed at 25° C. in a freshly prepared 50 mM Tris buffer (pH 8.0) treated with dithiozone to remove traces of heavy metals. 4 mM CaCl2 was added and the buffer saturated wtih argon. Stock solutions of adamalysin II were prepared by centrifugation of the protein from an ammonium sulfate suspension and subsequent dissolution in the assay buffer. Stock solutions of collagenase were diluted with the assay buffer. Enzyme concentrations were determined by uv measurements (ε280=2.8 10^4 M1 cm^−1, ε288: 2.2 10^4 M^−1 cm^−1) and the stock solutions were stored in the cold. This solution was diluted 1:100 to obtain the final 16 nM assay concentration. The fluorogenic substrate DNP-ProLeu-Gly-LeuTrp-Ala-D-Arg-NH2 with a Km of 52 μM was used at a concentration of 21.4 μM; for the Ki determination a 12.8 μM concentration has also been used. Substrate fluorescence was measured at an excitation and emission wavelength of λ=320 and 420 nm, respectively, on a spectrofluorimeter (Perkin Elmer, Model 650-40) equipped with a thermostated cell holder. Substrate hydrolysis was monitored for 10 min. immediately after adding the enzyme. All reactions were performed at least in triplicate. The Ki values—of the inhibitors were calculated from the intersection point of the straight lines obtained by the plots of vo/vi vs. [concentration of inhibitor], whereas IC50 values were calculated from plots of vi/vo [concentration of inhibitor] by non-linear regression with simple robust weighting.
50 mM Tris/HCl pH 7.6 (Tris=Tris-(hydroxymethyl)-aminomethan)
100 mM NaCl/10 mM CaCl 2/5% MeOH (ff necessary)
Enzyme: 8 nM catalytic domain (Met80-Gly242) of human neutrophil collagenase
Substrate: 10 microM DNP-Pro-Leu-Gly-Leu-Trp-Ala-D-Arg-NH2
A solution of the enzyme and inhibitor in assay buffer (25° C.) was prepared. The reaction was started directly by giving the substrate into the solution. The cleavage of the flourogenic substrate was followed by flourescence spectroscopy with an excitation and emision wavelength of 280 and 350 nm, respectively. The IC50 value was calculated as the inhibitor concentration, which is necessary to decrease the velocity of the reaction to the half in comparison to the reaction without inhibitor.

Row | Molecule | pIC50
1 | O=C1NC(=O)C(c2ccccc2)(N(Cc2ccccc2)C(=O)Cc2cccc(Br)c2)C(=O)N1 [preferred no. 120, N-Benzyl-2-(3-bromo-phenyl)-N-(2,4,6-trioxo-5-phenyl-hexahydro-pyrimidin-5-yl)-acetamide] | 6.82
2 | O=C1NC(=O)C(c2ccccc2)(N2CCN(c3ccc([N+](=O)[O-])cc3)CC2)C(=O)N1 [example 32.77, 5-[4-(4-Nitro-phenyl)-piperazin-1-yl)-5-phenyl-pyrimidine-2,4,6-trione] | 6.80

Same assay, conditions: MMP-8 (catalytic domain of human neutrophil collagenase), 25° C.; read-out: IC-50

Row | Molecule | pIC50
3 | 5-[N-(2-Hydroxyethyl)piperazinyl]-5-(4-hydroxyphenyl)barbituric Acid [example 20] | 6.07
4 | O=C1NC(=O)C(NC(=O)c2cccc3c2C(=O)c2ccccc2-3)(c2ccccc2)C(=O)N1 [example 32.74, 9-Oxo-9H-fluorene-1-carboxylic acid (2,4,6-trioxo-5-phenyl-hexadro-pyrimidin-5-yl)-amide] | 6.05
5 | CCCCCCCCC1(N2CCN(c3ccc([N+](=O)[O-])cc3)CC2)C(=O)NC(=O)NC1=O [preferred no. 118] | 7.22
6 | O=C1NC(=O)C(c2ccc(-c3ccccc3)cc2)(N2CCN(c3ccc([N+](=O)[O-])cc3)CC2)C(=O)N1 [example 26, 5-(4′-Biphenyl)-5-[N-(4-nitrophenyl)piperazinyl]barbituric Acid] | 7.82
7 | 5-Octyl-5-[N-(2-hydroxyethyl)piperazinyl]barbituric Acid [example 23] | 6.96
8 | 5-Decyl-5-[N-(2-hydroxyethyl)piperazinyl]barbituric Acid [example 28] | 6.49
